From patent US20070231258A1, “Peptide conjugates” (KARYON CTT LTD., priority 2006, published 2007)
*1 amine or outer side, *2 acyl side, *3 side chain or, on linkers, in order; H or OH if unused. Bridges are numbered along the chain shown (N, C = ends). Primed or numbered codes have the meaning given here. [ ]: non-standard residue; d: D form. DTPA′ = diethylenetriaminepentaacetic acid chelator; NHCH2CH2SCH2CO = O=C(CSCCN[*:1])[*:2]; Cysteamide = C(CS[*:3])N[*:1]; AEEEA = NCCOCCOCCOCC(=O)O; AABz = not defined here

Tests used:
[1] = Plasma stability of the peptide conjugates in human blood plasma/PBS (HPLC)
Experimental: The peptide conjugates (10-20 μg) was added to a human blood plasma/PBS mixture (1:1) in a total volume of 500 μl and incubated at 37° C. After incubation 100 μl per time point (0 and 240 min) was transferred to YM-10 (Microcon, cut-off 10000 MW; manufacturer Millipore), centrifuged (10000 RPM) 15 min at 4° C. 50 μl of the spin-through material was analyzed by HPLC.
HPLC: Waters 626 pump, 600S controller, Waters 996 photo diode array detector. Column: C18, 300 Å, 5 μm, 2.1×250 mm. Eluents for the non-conjugated functional peptides: A 0.1% TFA, B 0.075% TFA/100% ACN. Gradient: 0-100% B in 60 min. Flow: 180 μl/min. Loop: 50 μl.
Eluents for the functional peptide conjugates: Eluent A: 0.05 M ammonium acetate; B: 50% 0.05 M ammonium acetate/50% ACN. Gradient: 0-100% B in 60 min. Flow: 180 μl/min. Loop: 50 μl. One-minute fractions were collected and analyzed with MALDI-TOF.
Peptide mass: Bruker Ultraflex MALDI-TOF, N2-laser 337 nm, matrix saturated solution of α-cyano-4-hydroxycinnamic acid, reflector mode.

HCT-15 tumors = assay: Biodistribution of cystine- and lactam-bridged conjugates (Eu content) in HCT-15 tumor-bearing mice; assay type: in vivo, athymic-nu nude mice; settings: 4 nmol MJ018 vs 16 nmol MJ069 i.v., 15 min circulation
Experimental: The biodistribution of the targeting agents MJ018 (lactam-bridged; described in Example 4) and MJ069 (cystine-bridged; described below) comprising functional peptide YGFVWGE was compared in mice carrying primary tumors of HTC-15, a human colorectal cancer cell line.
For production of experimental tumors, 22.5 million (for MJ018), and 1 million (for MJ069) HCT-15 cells were injected subcutaneously into both flanks of athymic-nu nude mice (Harlan Laboratories). The human colorectal cancer HCT-15 cell line (ATCC: CCL-225), called herein also “HCT-15”, was cultured in RPMI 1640 medium with 2 mM L-glutamine adjusted to contain 1.5 g/L sodium bicarbonate, 4.5 g/L glucose, 10 mM HEPES, and 1.0 mM sodium pyruvate, 1% penicillin/streptomycin, 10% fetal bovine serum.
Tumors were harvested when they had reached a minimum weight of 0.1 g. […]
For determination of the Eu content of the tumors and control or gans, 0.05-0.2 g of tissue was transferred into lysis buffer (20 mM Tris-HCl, 150 mM NaCl, 1% Nonident P40, pH 7.5) and homogenised. The Eu-content was determined from tissue lysates prepared into Enhancement solution (Perkin Elmer Wallac Ltd., Turku, Finland) and transferred to DELFIA Micro titration strip plates (Perkin Elmer Wallac Ltd., Turku, Finland). Time-resolved fluorescence was measured after incubation with a Wallac 1420 VICTOR3™ V plate reader using a D615 nm filter.

HSC-3 = assay: Cell binding assay of immobilized peptide conjugate (MTT detection); assay type: cell-based, human; settings: HSC-3 cells, wells coated at 30 μg/ml, 30 min 37° C.
Experimental: The human oral squamous cell carcinoma line HSC-3, called herein “HSC-3” (JCRB Cell Bank 0623, National Institute of Health Sciences, Japan) was cultivated in 1:1 DMEM and Ham's F 12 medium containing 10% FBS 1% penicillin/streptomycin, L-glutamate and sodium pyruvate and 0.4 ng/ml hydrocortisone.
(§1) Preparation of plates for the assays. Wells of Reacti-Bind Maleimide activated clear strip plate (Pierce, Prod#. 15150) were coated with a peptide conjugate a*YGFVWGEE*-(Teg-E)2-EAT, Compound MJ013 prepared in Example 3, at a concentration of 30 μg/ml. The incubation was carried out overnight at 20° C. The binding buffer containing unbound peptide was re-moved from the wells.
(§2) The wells were blocked with blocking buffer (0.5% BSA, 0.05% Tween20 in phosphate buffer saline (PBS). PBS was prepared as follows: 40 g of NaCl, 1 g of KCl, 7 g of Na2HPO4×2H2O and 1 g of KH2PO4 were dissolved in […] of deionized H2O). Blank wells as controls were prepared by treating empty wells with blocking buffer. […]
(§3) Cell binding assay: 75000 cells in volume of 150 μl of medium were added into coated wells and were incubated for 30 min at 37° C. […] After formazan was solubilized by 10% SDS-0,01 M HCl, it was quantified with an ELISA spectrometer (ThermoLabsystems Multiscan EX) at 560 nm. […] The following day the absorbance of plate was measured at 560 nm with an ELISA-reader (ThermoLab-systems, Multiskan EX).

SVEC4-10 = assay: as above; assay type: cell-based, mouse; settings: control cell line SVEC4-10, wells coated at 30 μg/ml, 30 min 37° C.
Experimental: The mouse vascular endothelial cell line SVEC4-10, called herein also “SVEC4-10”, has been described previously by O'Connell et al. in J. Immunol., 1990, 144: 521-525. The cell line was cultured in DMEM medium adjusted to contain 2 mM L-glutamine, 1% penicillin/streptomycin, and 10% fetal bovine serum.
as §1, §2, §3

HCT-15-LM1 = assay: as above; assay type: cell-based, human; settings: HCT-15-LM1 cells, wells coated at 30 μg/ml, 30 min 37° C.
Text: The colorectal cancer cell line HCT-15-LM1 was developed as follows. The cell culture was started with cancer cells from lung metastases which had developed after injection of human colorectal cancer HCT-15 cells into the bloodstream of a mouse. The inoculation procedure was then repeated with HCT-15-LM1 cells leading to the establishment of another metastatic cell line, HCT-15-LM2.
as §1
The wells were blocked with blocking buffer (0.5% BSA, 0.05% Tween20 in phosphate buffer saline (PBS). PBS was prepared as follows: 40 g of NaCl, 1 g of KCl, 7 g of Na2HPO4×2H2O and 1 g of KH2PO4 were dissolved in 1000 ml of deionized H2O). […]
as §3

C8161T = assay: as above; assay type: cell-based, human; settings: C8161T cells, wells coated at 30 μg/ml, 30 min 37° C.
Experimental: The human melanoma cell line C8161 has been described previously by Welch et al. in Int. J. Cancer, 1991, 47: 227-237. A more metastatic cell line C8161T, called herein also “C8161T”, was developed by culturing cells from a subcutaneous melanoma tumor developed after inoculation of C8161 melanoma cells on the flank of a nude mouse. The cell line was cultured in DMEM medium adjusted to contain 2 mM L-glutamine, 1% penicillin/streptomycin, and 10% fetal bovine serum.
as §1, with “wells. […]” for “wells.”
as §3

HCT-15 = assay: as above; assay type: cell-based, human; settings: HCT-15 cells, wells coated at 30 μg/ml, 30 min 37° C.
Experimental: The human colorectal cancer HCT-15 cell line (ATCC: CCL-225), called herein also “HCT-15”, was cultured in RPMI 1640 medium with 2 mM L-glutamine adjusted to contain 1.5 g/L sodium bicarbonate, 4.5 g/L glucose, 10 mM HEPES, and 1.0 mM sodium pyruvate, 1% penicillin/streptomycin, 10% fetal bovine serum.
as §1, §2, §3

NIH3T3 = assay: as above; assay type: cell-based, mouse; settings: control cell line NIH3T3, wells coated at 30 μg/ml, 30 min 37° C.
Experimental: The mouse fibroblast line NIH3T3, called herein also “NIH3T3”, has been described previously by Koga et al. in Gann, 1979, 70: 585-591. The cell line was cultured in DMEM medium adjusted to contain 2 mM L-glutamine, 1% penicillin/streptomycin, and 10% fetal bovine serum.
as §1, §2, §3

Substance: a*YGFVWGEE*-(Teg-E)2-AEM-AABz-DTPA-Eu (YGFVWGEE[AEEEA]E[AEEEA]E-{NHCH2CH2SCH2CO-AABz-DTPA′}; lactam N-8; not fully specified (N-terminus); reading uncertain; also: DTPA chelate of Eu) [MJ018]
- Observed compound peak heights prior to incubation ([1]; 0 h, human blood plasma/PBS 1:1, 37° C.): 100%
- Observed compound peak heights after four hours ([1]; 4 h, human blood plasma/PBS 1:1, 37° C.): 100%
- degradation during incubation in plasma ([1]; 4 h incubation in human plasma): no degradation
- accumulation in tumor tissue (tissue-to-muscle Eu content), lactam- vs cystine-bridged (HCT-15 tumors): accumulated more strongly in the tumor tissue than the cystine-bridged conjugate MJ069

Substance: a*YGFVWGEE*-(Teg-E)2-EAT (YGFVWGEE[AEEEA]E[AEEEA]E-Cysteamide; lactam N-8; not fully specified (N-terminus)) [MJ013]
- cell binding to immobilized peptide conjugate (absorbance at 560 nm) (HSC-3): bind selectively
- cell binding to immobilized peptide conjugate (absorbance at 560 nm) (SVEC4-10): significantly less binding
- cell binding to immobilized peptide conjugate (absorbance at 560 nm) (HCT-15-LM1): bind selectively
- cell binding to immobilized peptide conjugate (absorbance at 560 nm) (C8161T): bind selectively
- cell binding to immobilized peptide conjugate (absorbance at 560 nm) (HCT-15): bind selectively
- cell binding to immobilized peptide conjugate (absorbance at 560 nm) (NIH3T3): significantly less binding
